Reference: patent publication US9302999B2, “Substituted triazoles as herbicides” (E. I. DU PONT DE NEMOURS AND COMPANY, priority 2012, dated 2016)

Tests used:
Assay type in all cases: in vivo
[1] = test system: crabgrass, large (large crabgrass, Digitaria sanguinalis); experiment: Test A pre-/postemergence: crabgrass, large
Procedure, shortened: (§1)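 Plants in loam–sand blend were treated with test chemicals in non-phytotoxic solvent with surfactant, either as preemergence directed soil spray or postemergence at 2–10 cm, one- to two-leaf stage. After about ten days in greenhouse, injury was rated visually against untreated controls on a 0–100 scale (100 = complete control).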

[2] = test system: ragweed (common ragweed, Ambrosia elation); experiment: Test C pre-/postemergence: ragweed
Procedure, shortened: (§2)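 Visual injury scored 0–100 (100 = complete control) against untreated controls after 13–15 greenhouse days. Surfactant-containing solvent formulations applied either to soil after sowing (loam/sand) or over 1- to 4-leaf plants, 2–18 cm tall.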

[3] = test system: barnyardgrass (Echinochloa crus-galli); experiment: Test A pre-/postemergence: barnyardgrass
Procedure, shortened: as §1

[4] = test system: large crabgrass (Digitaria sanguinalis); experiment: Test C pre-/postemergence: large crabgrass
Procedure, shortened: as §2

corn (Zea mays) = experiment: Test C pre-/postemergence: corn
Procedure, shortened: as §2

wild oat (Avena fatua) = experiment: Test C pre-/postemergence: wild oat; conditions: Postemergence
Procedure, shortened: as §2

soybean (Glycine max) = experiment: Test C pre-/postemergence: soybean
Procedure, shortened: as §2

[5] = test system: blackgrass (Alopecurus myosuroides); experiment: Test C pre-/postemergence: blackgrass
Procedure, shortened: as §2

[6] = test system: johnsongrass (Sorghum halepense); experiment: Test C pre-/postemergence: johnsongrass
Procedure, shortened: as §2

[7] = test system: winter wheat (Triticum aestivum); experiment: Test C pre-/postemergence: winter wheat
Procedure, shortened: as §2

[8] = test system: nutsedge, yellow (yellow nutsedge, Cyperus esculentus); experiment: Test C pre-/postemergence: nutsedge, yellow
Procedure, shortened: as §2

[9] = test system: foxtail, giant (giant foxtail, Setaria faberii); experiment: Test A pre-/postemergence: foxtail, giant
Procedure, shortened: as §1

[10] = Postemergence, 1000 g ai/ha, visual rating on 0 to 100 scale (0 no effect, 100 complete control), approximately ten days
[11] = Preemergence, 1000 g ai/ha, 0 to 100 scale, 0 is no effect, 100 is complete control
[12] = Postemergence, 16 g ai/ha, scale 0 to 100, 0 no effect, 100 complete control
[13] = Postemergence, 31 g ai/ha, scale 0 to 100 (0 no effect, 100 complete control)
[14] = Postemergence, 62 g ai/ha, scale 0 to 100 (0 no effect, 100 complete control)
[15] = Postemergence, 125 g ai/ha, scale 0 to 100, 0 no effect, 100 complete control
[16] = 31 g ai/ha, scale 0 to 100 (0 no effect, 100 complete control)
[17] = 62 g ai/ha, scale 0 to 100 (0 no effect, 100 complete control)
[18] = 125 g ai/ha, scale 0 to 100, 0 no effect, 100 complete control
[19] = Postemergence, 125 g ai/ha, 0 to 100 scale, 0 is no effect, 100 is complete control
[20] = Postemergence, 500 g ai/ha, visual rating on 0 to 100 scale (0 no effect, 100 complete control), approximately ten days
[21] = Preemergence, 125 g ai/ha, 0 to 100 scale where 0 is no effect and 100 is complete control
[22] = Preemergence, 500 g ai/ha, 0 to 100 scale (0 no effect, 100 complete control)
[23] = Postemergence, 250 g ai/ha, scale 0 to 100
[24] = Preemergence, 31 g ai/ha, scale of 0 to 100, 0 is no effect, 100 is complete control
[25] = Preemergence, 62 g ai/ha, scale of 0 to 100, 0 is no effect, 100 is complete control
[26] = Preemergence, 125 g ai/ha, scale 0 to 100, 0 no effect, 100 complete control
[27] = Preemergence, 250 g ai/ha, scale 0 to 100, 0 no effect, 100 complete control

Cc1nn(-c2ccc(C(F)(F)F)cc2)nc1Cc1cccc(C(F)(F)F)c1 [Compound 124]
Crabgrass, Large plant response rating [1, 10]: 90 | Crabgrass, Large plant response rating [1, 11]: 100 | Plant response rating, Ragweed [2, 12]: 45 | Plant response rating, Ragweed [2, 13]: 50 | Plant response rating, Ragweed [2, 14]: 65 | Plant response rating, Ragweed [2, 15]: 65 | Barnyardgrass plant response rating [3, 10]: 70 | Barnyardgrass plant response rating [3, 11]: 90 | Plant response rating, Crabgrass, Large [4, 12]: 20 | Plant response rating, Crabgrass, Large [4, 13]: 30 | Plant response rating, Crabgrass, Large [4, 14]: 40 | Plant response rating, Crabgrass, Large [4, 15]: 45 | Plant response rating, Corn (corn (Zea mays); [12]): 5 | Plant response rating, Corn (corn (Zea mays); [13]): 20 | Plant response rating, Corn (corn (Zea mays); [14]): 25 | Plant response rating, Corn (corn (Zea mays); [15]): 25 | Plant response rating, Oat, Wild (wild oat (Avena fatua); 16 g ai/ha, scale 0 to 100, 0 no effect, 100 complete control): 20 | Plant response rating, Oat, Wild (wild oat (Avena fatua); [16]): 20 | Plant response rating, Oat, Wild (wild oat (Avena fatua); [17]): 25 | Plant response rating, Oat, Wild (wild oat (Avena fatua); [18]): 35 | Plant response rating, Soybean (soybean (Glycine max); [12]): 45 | Plant response rating, Soybean (soybean (Glycine max); [13]): 55 | Plant response rating, Soybean (soybean (Glycine max); [14]): 55 | Plant response rating, Soybean (soybean (Glycine max); [15]): 60 | Plant response rating, Blackgrass [5, 12]: 0 | Plant response rating, Blackgrass [5, 13]: 35 | Plant response rating, Blackgrass [5, 14]: 50 | Plant response rating, Blackgrass [5, 15]: 85 | Plant response rating, Johnsongrass [6, 12]: 5 | Plant response rating, Johnsongrass [6, 13]: 5 | Plant response rating, Johnsongrass [6, 14]: 40 | Plant response rating, Johnsongrass [6, 15]: 45 | Plant response rating, Wheat [7, 12]: 5 | Plant response rating, Wheat [7, 13]: 10 | Plant response rating, Wheat [7, 14]: 15 | Plant response rating, Wheat [7, 15]: 20 | Plant response rating, Nutsedge, Yellow [8, 12]: 0 | Plant response rating, Nutsedge, Yellow [8, 13]: 0 | Plant response rating, Nutsedge, Yellow [8, 14]: 0 | Plant response rating, Nutsedge, Yellow [8, 15]: 0 | Foxtail, Giant plant response rating [9, 10]: 90 | Foxtail, Giant plant response rating [9, 11]: 100

Cc1nn(-c2ccc(C(F)(F)F)c(F)c2)nc1Cc1ccnc(C(F)(F)F)c1 [Compound 162]
Plant response rating, Crabgrass, Large [1, 19]: 90 | Crabgrass, Large plant response rating [1, 20]: 90 | Plant response rating, Crabgrass, Large [1, 21]: 100 | Plant response rating, Crabgrass, Large [1, 22]: 100 | Plant response rating, Ragweed [2, 13]: 85 | Plant response rating, Ragweed [2, 15]: 85 | Plant response rating, Ragweed [2, 23]: 95 | Plant response rating, Ragweed [2, 24]: 50 | Plant response rating, Ragweed [2, 25]: 75 | Plant response rating, Ragweed [2, 26]: 80 | Plant response rating, Ragweed [2, 27]: 95 | Plant response rating, Barnyardgrass [3, 19]: 80 | Barnyardgrass plant response rating [3, 20]: 90 | Plant response rating, Barnyardgrass [3, 21]: 90 | Plant response rating, Barnyardgrass [3, 22]: 100 | Plant response rating, Crabgrass, Large [4, 13]: 20 | Plant response rating, Crabgrass, Large [4, 14]: 35 | Plant response rating, Crabgrass, Large [4, 15]: 35 | Plant response rating, Crabgrass, Large [4, 23]: 80 | Plant response rating, Crabgrass, Large [4, 24]: 100 | Plant response rating, Crabgrass, Large [4, 25]: 100 | Plant response rating, Crabgrass, Large [4, 26]: 100 | Plant response rating, Crabgrass, Large [4, 27]: 100 | Plant response rating, Corn (corn (Zea mays); [13]): 15 | Plant response rating, Corn (corn (Zea mays); [14]): 30 | Plant response rating, Corn (corn (Zea mays); [15]): 30 | Plant response rating, Corn (corn (Zea mays); [23]): 40 | Plant response rating, Corn (corn (Zea mays); [24]): 5 | Plant response rating, Corn (corn (Zea mays); [25]): 20 | Plant response rating, Corn (corn (Zea mays); [26]): 20 | Plant response rating, Corn (corn (Zea mays); [27]): 35 | Plant response rating, Oat, Wild (wild oat (Avena fatua); [16]): 40 | Plant response rating, Oat, Wild (wild oat (Avena fatua); [17]): 60 | Plant response rating, Oat, Wild (wild oat (Avena fatua); [18]): 60 | Plant response rating, Oat, Wild (wild oat (Avena fatua); 250 g ai/ha, scale 0 to 100): 90 | Plant response rating, Soybean (soybean (Glycine max); [13]): 70 | Plant response rating, Soybean (soybean (Glycine max); [14]): 70 | Plant response rating, Soybean (soybean (Glycine max); [15]): 75 | Plant response rating, Soybean (soybean (Glycine max); [23]): 95 | Plant response rating, Soybean (soybean (Glycine max); [24]): 15 | Plant response rating, Soybean (soybean (Glycine max); [25]): 15 | Plant response rating, Soybean (soybean (Glycine max); [27]): 25 | Plant response rating, Blackgrass [5, 13]: 45 | Plant response rating, Blackgrass [5, 14]: 80 | Plant response rating, Blackgrass [5, 15]: 85 | Plant response rating, Blackgrass [5, 23]: 90 | Plant response rating, Blackgrass [5, 24]: 60 | Plant response rating, Blackgrass [5, 25]: 90 | Plant response rating, Blackgrass [5, 26]: 90 | Plant response rating, Blackgrass [5, 27]: 95 | Plant response rating, Johnsongrass [6, 13]: 45 | Plant response rating, Johnsongrass [6, 14]: 80 | Plant response rating, Johnsongrass [6, 15]: 80 | Plant response rating, Johnsongrass [6, 23]: 98 | Plant response rating, Johnsongrass [6, 24]: 35 | Plant response rating, Johnsongrass [6, 25]: 60 | Plant response rating, Johnsongrass [6, 26]: 98 | Plant response rating, Johnsongrass [6, 27]: 98 | Plant response rating, Wheat [7, 13]: 20 | Plant response rating, Wheat [7, 14]: 20 | Plant response rating, Wheat [7, 15]: 25 | Plant response rating, Wheat [7, 23]: 25 | Plant response rating, Wheat [7, 25]: 5 | Plant response rating, Wheat [7, 26]: 20 | Plant response rating, Wheat [7, 27]: 35 | Plant response rating, Nutsedge, Yellow [8, 13]: 5 | Plant response rating, Nutsedge, Yellow [8, 14]: 5 | Plant response rating, Nutsedge, Yellow [8, 15]: 5 | Plant response rating, Nutsedge, Yellow [8, 23]: 10 | Plant response rating, Nutsedge, Yellow [8, 24]: 0 | Plant response rating, Nutsedge, Yellow [8, 25]: 0 | Plant response rating, Nutsedge, Yellow [8, 26]: 5 | Plant response rating, Nutsedge, Yellow [8, 27]: 5 | Plant response rating, Foxtail, Giant [9, 19]: 90 | Foxtail, Giant plant response rating [9, 20]: 90 | Plant response rating, Foxtail, Giant [9, 21]: 100 | Plant response rating, Foxtail, Giant [9, 22]: 100
